In brackets after ≈: the same amount, converted by molar mass.
How the values were obtained:
Type in all cases: cell-based
Aspergillus fumigatus = test: Antifungal MIC, microtiter broth dilution; conditions: Aspergillus fumigatus strain ATCC 26933; 35° C., 24-48 hours
Protocol: (§1) The antifungal activity for the hydroxyesters of 7-desmethylrapamycin of this invention was confirmed in a standard pharmacological test procedure which measured the ability of the compound being evaluated to inhibit fungal growth. 7-Desmethylrapamycin 42-ester with 3-hydroxy-2-(hydroxymethyl)-2-methylpropionic acid (Compound I) was evaluated as a representative compound of this invention. The procedure used and results obtained are briefly described below. A 96 U-bottom microtiter plate was filled (50 μl/well) with RPMI 1640. The compounds to be evaluated were placed in appropriate wells, and serial diluted in successive wells to provide 11 dilutions. The concentrations ranged from 64 through 0.06 μg/ml. An adjusted inoculum of fungi (50 μl) was added to each well and the plates were incubated at 35° C. for 24-48 hours. […] Nystatin and amphotericin B were used for the purpose of comparison.

Aspergillus niger = test: Antifungal MIC, microtiter broth dilution; conditions: 35° C., 24-48 hours
Protocol: as §1

Candida albicans = test: Antifungal MIC, microtiter broth dilution; conditions: 35° C., 24-48 hours
Protocol: as §1

Candida krussii = test: Antifungal MIC, microtiter broth dilution; conditions: Candida krussii strain 94-2; 35° C., 24-48 hours
Protocol: as §1

Candida lusitaniae = test: Antifungal MIC, microtiter broth dilution; conditions: Candida lusitaniae strain 94-3; 35° C., 24-48 hours
Protocol: as §1

Candida parapsilosis = test: Antifungal MIC, microtiter broth dilution; conditions: 35° C., 24-48 hours
Protocol: as §1

Candida pseudotropicalis = test: Antifungal MIC, microtiter broth dilution; conditions: Candida pseudotropicalis strain ATCC 28838; 35° C., 24-48 hours
Protocol: as §1

Candida rugosa = test: Antifungal MIC, microtiter broth dilution; conditions: Candida rugosa strain 94-10; 35° C., 24-48 hours
Protocol: as §1

Candida tropicalis = test: Antifungal MIC, microtiter broth dilution; conditions: 35° C., 24-48 hours
Protocol: as §1

[1] = tested on: U87MG human glioblastoma cells; test: Inhibition of U87MG human glioblastoma cell growth (3H-thymidine incorporation); conditions: 48 hours incubation
Protocol: The antineoplastic activity of the compounds of this invention were confirmed in a standard pharmacological test procedure which measures the inhibition of U87MG human glioblastoma cell growth (as a function of ^3H-thymidine incorporation), using 7-desmethylrapamycin 42-ester with 3-hydroxy-2-(hydroxymethyl)-2-methylpropionic acid (Compound I) as are presentative compound of this invention. The following briefly describes the procedure used and results obtained. U87MG human glioblastoma cells (ATCC # HTB-14; available from the American Type Culture Collection; 10801 University Boulevard; Manassas, Va. 20110;), were grown in the following media.
BRL Minimum Essential Medium with Earle Salts (500 mL)
+5 mL BRL MEM Non-Essential Amino Acids (10 mM)
+5 mL BRL Penicillin-Streptomycin (10000 u/mL, 10000 μg/mL)
+5 mL BRL Na Pyruvate Solution (100 mM)
+5 mL BRL L-Glutamine 200 mM
+50 mL BRL Fetal Bovine Serum (Qualified)
1. Cells were trypsinized and plated at a concentration of 10^4 cells/well in a final volume of 200 μL growth medium in 96-well flat bottom plates and allowed to adhere for 24 hours at 37° C.
2. The media was removed by aspiration with care to not disturb the cell monolayer. 200 μL of fresh growth media was added per well, allowing enough wells for samples to be run in triplicate. […]
4. […] Mats were counted in a Wallac Betaplate counter.

[2] = Candida albicans strain ATCC 90028
[3] = Candida parapsilosis strain 94-8
[4] = Candida parapsilosis strain 94-9
[5] = Candida parapsilosis strain ATCC 90018
[6] = Candida tropicalis strain 94-13
[7] = Candida tropicalis strain 94-14

| Compound | ANTIFUNGAL ACTIVITY (MIC) (Aspergillus fumigatus) | ANTIFUNGAL ACTIVITY (MIC) (Aspergillus niger; Aspergillus niger strain S399) | ANTIFUNGAL ACTIVITY (MIC) (Aspergillus niger; Aspergillus niger strain S430) | ANTIFUNGAL ACTIVITY (MIC) (Candida albicans; Candida albicans strain 1063) | ANTIFUNGAL ACTIVITY (MIC) (Candida albicans; Candida albicans strain 1117) | ANTIFUNGAL ACTIVITY (MIC) (Candida albicans; [2]) | ANTIFUNGAL ACTIVITY (MIC) (Candida krussii) | ANTIFUNGAL ACTIVITY (MIC) (Candida lusitaniae) | ANTIFUNGAL ACTIVITY (MIC) (Candida parapsilosis; [3]) | ANTIFUNGAL ACTIVITY (MIC) (Candida parapsilosis; [4]) | ANTIFUNGAL ACTIVITY (MIC) (Candida parapsilosis; [5]) | ANTIFUNGAL ACTIVITY (MIC) (Candida pseudotropicalis) | ANTIFUNGAL ACTIVITY (MIC) (Candida rugosa) | ANTIFUNGAL ACTIVITY (MIC) (Candida tropicalis; [6]) | ANTIFUNGAL ACTIVITY (MIC) (Candida tropicalis; [7]) | IC50 [1] |
| --- | --- | --- | --- | --- | --- | --- | --- | --- | --- | --- | --- | --- | --- | --- | --- | --- |
| C[C@@H]1[C@H](O)[C@@H](C)/C=C/C=C/C=C/C=C/C=C/C=C/C=C/[C@H](O[C@@H]2O[C@H](C)[C@@H](O)[C@H](N)[C@@H]2O)C[C@@H]2O[C@](O)(C[C@@H](O)C[C@@H](O)[C@H](O)CC[C@@H](O)C[C@@H](O)CC(=O)O[C@H]1C)C[C@H](O)[C@H]2C(=O)O [Amphotericin B, amphotericin B] | 0.25 µg/mL | 0.50 µg/mL | 0.25 µg/mL | ≦0.06 μg/mL | 0.12 µg/mL | 0.12 µg/mL | 0.12 µg/mL | ≦0.06 μg/mL | ≦0.06 μg/mL | 0.12 µg/mL | ≦0.06 μg/mL | ≦0.06 μg/mL | 0.25 µg/mL | ≦0.06 μg/mL | ≦0.06 μg/mL |  |
| CO[C@@H]1C[C@H](C[C@@H](C)[C@@H]2CC(=O)[C@H](C)/C=C(\C)[C@@H](O)[C@@H](OC)C(=O)[C@H](C)C[C@H](C)/C=C/C=C/C=C(\C)[C@@H](O)C[C@@H]3CC[C@@H](C)[C@@](O)(O3)C(=O)C(=O)N3CCCC[C@H]3C(=O)O2)CC[C@H]1OC(=O)C(C)(CO)CO [Compound I, 7-Desmethylrapamycin 42-ester with 3-hydroxy-2-(hydroxymethyl)-2-methylpropionic acid] | 64 µg/mL | 64 µg/mL | 64 µg/mL | 1 µg/mL | 4 µg/mL | 1 µg/mL | 0.5 µg/mL | 1 µg/mL | 2 µg/mL | 4 µg/mL | 2 µg/mL | 2 µg/mL | 2 µg/mL | 1 µg/mL | 1 µg/mL | 0.0065 µg/mL (≈ 6.4 nM) |
| C[C@@H]1[C@H](O)[C@@H](C)/C=C/C=C/CC/C=C/C=C/C=C/C=C/C(O[C@H]2O[C@H](C)[C@@H](O)[C@H](N)[C@@H]2O)CC2O[C@](O)(CC(O)C(O)CCC(O)CC(O)CC(O)CC(=O)O[C@H]1C)CC(O)C2C(=O)O (stereo partly shown) [Nystatin] | 2 µg/mL | 2 µg/mL | 1 µg/mL | 1 µg/mL | 1 µg/mL | 1 µg/mL | 1 µg/mL | 1 µg/mL | 2 µg/mL | 1 µg/mL | 2 µg/mL | 1 µg/mL | 1 µg/mL | 1 µg/mL | 1 µg/mL |  |

— patent US6399626B1, “Hydroxyesters of 7-desmethylrapamycin” (Wyeth, priority 2000, dated 2002)
